Laboratory results from PubChem BioAssay AID1963420 (Molecular Pharmacology Branch, DTP, NCI, 2024).

System: 494315-158-R-J1-PDC complex spheroid growth, percent test/control
Assay: Anticancer human tumor 494315-158-R-J1-PDC patient-derived soft tissue sarcoma cell line growth inhibition [Asc]
Conditions: for IC50: curve of first compound; for viability, T/C: stronger effect = lower value; active means viability on the fitted dose curve at most 10% of control; inactive means the rest
How it was run: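 Complex spheroids combining tumor cells with HUVEC endothelial cells and human MSCs, at 37 degrees C, 5% CO2; agents tested alone or combined, half-log dilutions from at or near clinical Cmax, or 10 microM if Cmax unknown.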

[1] = second compound 0.1 µM, first compound 0.00316 µM
[2] = second compound 0.1 µM, first compound 0.01 µM
[3] = second compound 0.1 µM, first compound 0.0316 µM
[4] = second compound 0.1 µM, first compound 0.1 µM
[5] = second compound 0.316 µM, first compound 0.00316 µM
[6] = second compound 0.316 µM, first compound 0.01 µM
[7] = second compound 0.316 µM, first compound 0.0316 µM
[8] = second compound 0.316 µM, first compound 0.1 µM
[9] = second compound 1 µM, first compound 0.00316 µM
[10] = second compound 1 µM, first compound 0.01 µM
[11] = second compound 1 µM, first compound 0.0316 µM
[12] = second compound 1 µM, first compound 0.1 µM
[13] = second compound 3.16 µM, first compound 0.00316 µM
[14] = second compound 3.16 µM, first compound 0.01 µM
[15] = second compound 3.16 µM, first compound 0.0316 µM
[16] = second compound 3.16 µM, first compound 0.1 µM
[17] = second compound 10 µM, first compound 0.00316 µM
[18] = second compound 10 µM, first compound 0.01 µM
[19] = second compound 10 µM, first compound 0.0316 µM
[20] = second compound 10 µM, first compound 0.1 µM
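Further: compound exposure lasted seven days after spheroids formed for three days.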

COc1c(OCCCN2CCOCC2)ccc2c3n(c(=NC(=O)c4cnc(N)nc4)nc12)CCN3 + Cc1c(S(C)(=O)=O)c(-c2cc(F)cc(N3CCN(c4ccc(NS(=O)(=O)c5ccc(NC(CCN6CCC(C(=O)OCCCP(=O)(O)O)CC6)CSc6ccccc6)c(S(=O)(=O)C(F)(F)F)c5)cc4)CC3)c2)c(-c2ccc(Cl)cc2)n1C(C)C
inactive: viability, T/C [1] 69.7% | viability, T/C [2] 60.7% | viability, T/C [3] 55.6% | viability, T/C [4] 29.8% | viability, T/C (second compound 0.1 µM, first compound 0.316 µM) 18% | viability, T/C (second compound 0.1 µM, first compound 1 µM) 12.9% | viability, T/C [5] 67.6% | viability, T/C [6] 56.1% | viability, T/C [7] 37.6% | viability, T/C [8] 32.1% | viability, T/C (second compound 0.316 µM, first compound 0.316 µM) 15.8% | viability, T/C (second compound 0.316 µM, first compound 1 µM) 11.1% | viability, T/C [9] 68.3% | viability, T/C [10] 58% | viability, T/C [11] 39.5% | viability, T/C [12] 26.6% | viability, T/C (second compound 1 µM, first compound 0.316 µM) 14% | viability, T/C (second compound 1 µM, first compound 1 µM) 10.7% | viability, T/C [13] 49.7% | viability, T/C [14] 45% | viability, T/C [15] 32.7% | viability, T/C [16] 21.4% | viability, T/C (second compound 3.16 µM, first compound 0.316 µM) 12.5% | viability, T/C [17] 69.3% | viability, T/C [18] 49% | viability, T/C [19] 31.2% | viability, T/C [20] 21.1% | viability, T/C (second compound 10 µM, first compound 0.316 µM) 12.8%
active: viability, T/C (second compound 3.16 µM, first compound 1 µM) 8.31% | viability, T/C (second compound 10 µM, first compound 1 µM) 9.05%
14.7 nM: IC50 (second compound 0.316 µM)
37.8 nM: IC50 (second compound 0.1 µM)
3.18 nM: IC50 (second compound 3.16 µM)
9.27 nM: IC50 (second compound 10 µM)
16.5 nM: IC50 (second compound 1 µM)

NC(=O)C(=Cn1cnc(-c2cc(C(F)(F)F)cc(C(F)(F)F)c2)n1)c1cncnc1 + Cc1c(S(C)(=O)=O)c(-c2cc(F)cc(N3CCN(c4ccc(NS(=O)(=O)c5ccc(NC(CCN6CCC(C(=O)OCCCP(=O)(O)O)CC6)CSc6ccccc6)c(S(=O)(=O)C(F)(F)F)c5)cc4)CC3)c2)c(-c2ccc(Cl)cc2)n1C(C)C
10.1 nM: IC50 (second compound 10 µM)
3.19 nM: IC50 (second compound 3.16 µM)
inactive: viability, T/C (second compound 0.1 µM, first compound 0.000949 µM) 79.5% | viability, T/C (second compound 0.1 µM, first compound 0.003 µM) 82.6% | viability, T/C (second compound 0.1 µM, first compound 0.00949 µM) 66.8% | viability, T/C (second compound 0.1 µM, first compound 0.03 µM) 44.9% | viability, T/C (second compound 0.1 µM, first compound 0.0949 µM) 19.2% | viability, T/C (second compound 0.316 µM, first compound 0.000949 µM) 72.7% | viability, T/C (second compound 0.316 µM, first compound 0.003 µM) 65.4% | viability, T/C (second compound 0.316 µM, first compound 0.00949 µM) 51.3% | viability, T/C (second compound 0.316 µM, first compound 0.03 µM) 40.7% | viability, T/C (second compound 0.316 µM, first compound 0.0949 µM) 23.2% | viability, T/C (second compound 1 µM, first compound 0.000949 µM) 53.7% | viability, T/C (second compound 1 µM, first compound 0.003 µM) 57.8% | viability, T/C (second compound 1 µM, first compound 0.00949 µM) 46.2% | viability, T/C (second compound 1 µM, first compound 0.03 µM) 35.1% | viability, T/C (second compound 1 µM, first compound 0.0949 µM) 16.3% | viability, T/C (second compound 3.16 µM, first compound 0.000949 µM) 52.2% | viability, T/C (second compound 3.16 µM, first compound 0.003 µM) 52.2% | viability, T/C (second compound 3.16 µM, first compound 0.00949 µM) 41.8% | viability, T/C (second compound 3.16 µM, first compound 0.03 µM) 24% | viability, T/C (second compound 3.16 µM, first compound 0.0949 µM) 12.9% | viability, T/C (second compound 10 µM, first compound 0.000949 µM) 67.4% | viability, T/C (second compound 10 µM, first compound 0.003 µM) 58% | viability, T/C (second compound 10 µM, first compound 0.00949 µM) 54.7% | viability, T/C (second compound 10 µM, first compound 0.03 µM) 29.2% | viability, T/C (second compound 10 µM, first compound 0.0949 µM) 14.8%
active: viability, T/C (second compound 0.1 µM, first compound 0.3 µM) 6.1% | viability, T/C (second compound 0.316 µM, first compound 0.3 µM) 4.23% | viability, T/C (second compound 1 µM, first compound 0.3 µM) 4.03% | viability, T/C (second compound 3.16 µM, first compound 0.3 µM) 2.93% | viability, T/C (second compound 10 µM, first compound 0.3 µM) 2.12%
12.4 nM: IC50 (second compound 0.316 µM)
6.67 nM: IC50 (second compound 1 µM)
23.2 nM: IC50 (second compound 0.1 µM)

NC1CCC(NC2CC2c2ccccc2)CC1 (stereo not given) + Cc1c(S(C)(=O)=O)c(-c2cc(F)cc(N3CCN(c4ccc(NS(=O)(=O)c5ccc(NC(CCN6CCC(C(=O)OCCCP(=O)(O)O)CC6)CSc6ccccc6)c(S(=O)(=O)C(F)(F)F)c5)cc4)CC3)c2)c(-c2ccc(Cl)cc2)n1C(C)C
0.337 nM: IC50 (second compound 3.16 µM)
9.33 nM: IC50 (second compound 1 µM)
inactive: viability, T/C (second compound 0.1 µM, first compound 0.000316 µM) 72.5% | viability, T/C (second compound 0.1 µM, first compound 0.001 µM) 71.3% | viability, T/C [1] 78.8% | viability, T/C [2] 68.5% | viability, T/C [3] 74.6% | viability, T/C [4] 72.9% | viability, T/C (second compound 0.316 µM, first compound 0.000316 µM) 56.4% | viability, T/C (second compound 0.316 µM, first compound 0.001 µM) 61.5% | viability, T/C [5] 61% | viability, T/C [6] 57.6% | viability, T/C [7] 64.5% | viability, T/C [8] 61.8% | viability, T/C (second compound 1 µM, first compound 0.000316 µM) 53.3% | viability, T/C (second compound 1 µM, first compound 0.001 µM) 67.5% | viability, T/C [9] 61.7% | viability, T/C [10] 47.9% | viability, T/C [11] 44.4% | viability, T/C [12] 55.6% | viability, T/C (second compound 3.16 µM, first compound 0.000316 µM) 49.9% | viability, T/C (second compound 3.16 µM, first compound 0.001 µM) 47.4% | viability, T/C [13] 43.6% | viability, T/C [14] 43% | viability, T/C [15] 39.8% | viability, T/C [16] 47.5% | viability, T/C (second compound 10 µM, first compound 0.000316 µM) 58% | viability, T/C (second compound 10 µM, first compound 0.001 µM) 58.6% | viability, T/C [17] 57.9% | viability, T/C [18] 57.6% | viability, T/C [19] 57.1% | viability, T/C [20] 56%
> 100 nM: IC50 (second compound 0.1 µM) | IC50 (second compound 0.316 µM) | IC50 (second compound 10 µM)
